According to ChEMBL document CHEMBL1121876, “gamma-Aminobutyric acid agonists, antagonists, and uptake inhibitors. Design and therapeutic aspects” (J Med Chem, 1981):

What was measured:
[1] = biological target: GABA-A receptor; anion channel; test: In vitro inhibition of [3H]isoguvacine binding to Gamma-aminobutyric acid receptor of human astrocytes
[2] = biological target: GABA-A receptor; anion channel; test: In vitro inhibition of [3H]muscimol binding to Gamma-aminobutyric acid receptor of human astrocytes
[3] = biological target: GABA-A receptor; anion channel; test: In vitro inhibition of [3H]GABA binding to Gamma-aminobutyric acid receptor of human astrocytes
[4] = biological target: GABA-A receptor; anion channel; test: In vitro inhibition of [3H]-THIP binding to Gamma-aminobutyric acid receptor of human astrocytes
[5] = Inhibition of neuronal GABA uptake; assay type: functional
[6] = biological target: GABA-A receptor; anion channel; test: Activation of binding of [3H]diazepam to Gamma-aminobutyric acid receptor; assay type: protein-complex assay
[7] = biological target: GABA-A receptor; anion channel; test: In vitro inhibition of [3H]P4S binding to Gamma-aminobutyric acid receptor of human astrocytes
[8] = Inhibition of glial GABA uptake; assay type: functional

Row | SMILES | IC50 [1] | IC50 [2] | IC50 [3] | IC50 [4] | IC50 [5] | EC50 [6] | IC50 [7] | IC50 [8]
1 | C[C@@H](N)CCC(=O)O | 6.1 µM | 4.3 µM | 5 µM | 2.5 µM | 200 µM | 410 µM | 21 µM | 120 µM
2 | C[C@@H](N)c1cc(O)no1 | 8.2 µM | 8.9 µM | 19 µM | 9.5 µM | > 1000 µM | 2300 µM | 83 µM | > 1000 µM
3 | C[C@H](N)CCC(=O)O | 5.2 µM | 2.5 µM | 4.7 µM | 2.9 µM | 750 µM | 550 µM | 24 µM | 1000 µM
4 | C[C@H](N)c1cc(O)no1 | 1.6 µM | 0.51 µM | 0.64 µM | 0.74 µM | > 1000 µM | 230 µM | 5.8 µM | > 1000 µM
5 | C[C@H](N)/C=C/C(=O)O | 2.5 µM | 3.5 µM | 4.1 µM | 2.6 µM | > 5000 µM | 390 µM | 21 µM | > 5000 µM
6 | C[C@@H](N)/C=C/C(=O)O | 84 µM | 145 µM | 148 µM | 88 µM | 160 µM | > 2000 µM | 670 µM | 500 µM
